Values of other authors as cited in US20090306081A1, “Solid Dosage Formulations of Hydralazine Compounds and Nitric Oxide Donor Compounds” (priority 2006, published 2009).

O=[N+]([O-])O[C@H]1CO[C@H]2[C@@H]1OC[C@H]2O[N+](=O)[O-] [Diluted isosorbide dinitrate, 1,4,3,6-dianhydro-D-glucitol-2,5-dinitrate]
solubility in organic solvents (organic solvents such as ethanol, ether and chloroform): freely soluble
solubility in water (water): sparingly soluble
